The record followed here is US20260297080A1, “BICYCLIC COMPOUNDS AS CDK INHIBITORS” (BeOne Medicines I GmbH, priority 2022, published 2026).

What is called pIC50 is the IC50 on a negative log10 scale, so that one unit is a factor of ten. Lower therefore signals a high IC50.

Structures are written as SMILES. pIC50: −log10 of the molar value.

Experiment [1] has as its target CDK2/Cyclin E1 (Homo sapiens, UniProt P24941). The experiment is described as follows: CDK2/Cyclin E1 Biochemical Assay (TR-FRET), 0.060 mM ATP. The settings on record: 0.15 μM Rb (Ser780)-biotin substrate, pH7.0, 60 min preincubation, 120 min reaction, room temperature. In short, it runs like this:
(§1)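 TR-FRET assay with 0.15 μM Rb (Ser780)-biotin substrate and 0-10 μM compound in 50 mM HEPES pH7.0, 50 mM MgCl2, 1 mM DTT. ATP was 0.060 mM for CDK2/Cyclin E1 and 0.015 mM for CDK1/Cyclin B1. Kinase was preincubated with compound 60 min, reacted 120 min at room temperature, and IC50 was fitted (four-parameter) from the 665/620 nm ratio.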

Experiment [2] has as its target CDK1/Cyclin B1 (Homo sapiens, UniProt P06493). Briefly: CDK1/Cyclin B1 Biochemical Assay (TR-FRET), 0.015 mM ATP. The settings on record: 0.15 μM Rb (Ser780)-biotin substrate, pH7.0, 60 min preincubation, 120 min reaction, room temperature. The procedure, abridged: as §1
In general terms: In TR-FRET formats the signal depends on donor and acceptor labels being close together.

CDK1/Cyclin B1, sequence (P06493 whole entry): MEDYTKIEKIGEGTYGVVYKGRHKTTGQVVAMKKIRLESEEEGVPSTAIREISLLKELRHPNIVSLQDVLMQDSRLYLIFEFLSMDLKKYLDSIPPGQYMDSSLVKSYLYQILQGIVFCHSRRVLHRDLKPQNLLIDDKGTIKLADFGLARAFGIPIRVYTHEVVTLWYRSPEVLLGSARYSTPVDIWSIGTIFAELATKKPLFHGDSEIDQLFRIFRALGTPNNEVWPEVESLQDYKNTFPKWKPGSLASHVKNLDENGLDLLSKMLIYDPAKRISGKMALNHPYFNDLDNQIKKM
CDK1/Cyclin B1, sequence (P14635 whole entry partner): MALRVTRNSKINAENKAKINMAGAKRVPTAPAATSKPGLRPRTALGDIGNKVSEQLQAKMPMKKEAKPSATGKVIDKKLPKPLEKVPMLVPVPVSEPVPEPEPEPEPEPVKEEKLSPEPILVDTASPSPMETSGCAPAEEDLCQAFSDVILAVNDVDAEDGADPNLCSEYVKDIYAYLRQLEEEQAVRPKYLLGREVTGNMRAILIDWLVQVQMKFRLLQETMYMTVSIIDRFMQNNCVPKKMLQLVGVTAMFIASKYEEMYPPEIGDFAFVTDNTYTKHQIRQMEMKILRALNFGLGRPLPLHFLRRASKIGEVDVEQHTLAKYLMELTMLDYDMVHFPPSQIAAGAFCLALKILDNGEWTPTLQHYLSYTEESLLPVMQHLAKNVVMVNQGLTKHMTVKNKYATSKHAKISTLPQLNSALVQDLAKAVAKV

On to `CC(C)NC(=O)O[C@H]1CC[C@@H](c2cc(Nc3ccc4c(c3F)CN(C3CCC(=O)N(C)C3)S4(=O)=O)n[nH]2)C1` (relative stereo) [Example 83, cis-3-(3-((4-fluoro-2-(1-methyl-6-oxopiperidin-3-yl)-1,1-dioxido-2,3-dihydrobenzo[d]isothiazol-5-yl)amino)-1H-pyrazol-5-yl)cyclopentyl isopropylcarbamate], for which the negative logarithm of the IC50 (pIC50) in experiment [1] is 7.82; in experiment [2], 6.25.
In the case of `CC(C)NC(=O)O[C@H]1CC[C@@H](c2cc(Nc3ccc4c(c3F)CN(C3CC(O)C3)S4(=O)=O)n[nH]2)C1` (relative stereo) [Example 84, 3-(3-((4-fluoro-2-(3-hydroxycyclobutyl)-1,1-dioxido-2,3-dihydrobenzo[d]isothiazol-5-yl)amino)-1H-pyrazol-5-yl)cyclopentyl isopropylcarbamate], the values for the pIC50 in experiment [1] and in experiment [2] were 8.07 and 6.41, respectively.
In the case of `CC(C)NC(=O)O[C@H]1CC[C@@H](c2cc(Nc3ccc4c(c3F)CN(C3CCN(S(C)(=O)=O)C3)S4(=O)=O)n[nH]2)C1` (relative stereo) [Example 85, cis-3-(3-((4-fluoro-2-(1-(methylsulfonyl)pyrrolidin-3-yl)-1,1-dioxido-2,3-dihydrobenzo[d]isothiazol-5-yl)amino)-1H-pyrazol-5-yl)cyclopentyl isopropylcarbamate], the pIC50 in experiment [1] is 8.34; in experiment [2], 6.33.
As to `CC(C)NC(=O)O[C@H]1CC[C@@H](c2cc(Nc3ccc4c(c3F)CN(C3CCCNC3=O)S4(=O)=O)n[nH]2)C1` (relative stereo) [Example 86, cis-3-(3-((4-fluoro-1,1-dioxido-2-(2-oxopiperidin-3-yl)-2,3-dihydrobenzo[d]isothiazol-5-yl)amino)-1H-pyrazol-5-yl)cyclopentyl isopropylcarbamate], the pIC50 was 8.11 in experiment [1] and 6.13 in experiment [2].
Consider `CC(C)NC(=O)O[C@H]1CC[C@@H](c2cc(Nc3ccc4c(c3F)CN(C3CCN(Cc5ccccc5)C3)S4(=O)=O)n[nH]2)C1` (relative stereo) [Example 87, cis-3-(3-((2-(1-benzylpyrrolidin-3-yl)-4-fluoro-1,1-dioxido-2,3-dihydrobenzo[d]isothiazol-5-yl)amino)-1H-pyrazol-5-yl)cyclopentyl isopropylcarbamate], for which the pIC50 was 7.54 in experiment [1] and 5.96 in experiment [2].
Take `CC(C)NC(=O)O[C@H]1CC[C@@H](c2cc(Nc3ccc4c(c3F)CN(C3CCCN(C)C3=O)S4(=O)=O)n[nH]2)C1` (relative stereo) [Example 88, cis-3-(3-((4-fluoro-2-(1-methyl-2-oxopiperidin-3-yl)-1,1-dioxido-2,3-dihydrobenzo[d]isothiazol-5-yl)amino)-1H-pyrazol-5-yl)cyclopentyl isopropylcarbamate]: the pIC50 in experiment [1] is 8.00; in experiment [2], 6.00.
As to `CC(C)NC(=O)O[C@H]1CC[C@@H](c2cc(Nc3ccc4c(c3F)CN(C3CN(S(C)(=O)=O)C3)S4(=O)=O)n[nH]2)C1` (relative stereo) [Example 89, cis-3-(3-((4-fluoro-2-(1-(methylsulfonyl)azetidin-3-yl)-1,1-dioxido-2,3-dihydrobenzo[d]isothiazol-5-yl)amino)-1H-pyrazol-5-yl)cyclopentyl isopropylcarbamate], the pIC50 in experiment [1] was 7.47; in experiment [2], 6.06.
The corresponding values for `CC(=O)N1CC(N2Cc3c(ccc(Nc4cc([C@@H]5CC[C@H](OC(=O)NC(C)C)C5)[nH]n4)c3F)S2(=O)=O)C1` (relative stereo) [Example 90, cis-3-(3-((2-(1-acetylazetidin-3-yl)-4-fluoro-1,1-dioxido-2,3-dihydrobenzo[d]isothiazol-5-yl)amino)-1H-pyrazol-5-yl)cyclopentyl isopropylcarbamate] are 7.70 and 6.12.
The corresponding values for `CC(C)NC(=O)O[C@H]1CC[C@@H](c2cc(Nc3ccc4c(c3F)CN(C3CN(C)C3)S4(=O)=O)n[nH]2)C1` (relative stereo) [Example 91, cis-3-(3-((4-fluoro-2-(1-methylazetidin-3-yl)-1,1-dioxido-2,3-dihydrobenzo[d]isothiazol-5-yl)amino)-1H-pyrazol-5-yl)cyclopentyl isopropylcarbamate] are 7.62 and 6.02.
On to `CC(C)NC(=O)O[C@H]1CC[C@@H](c2cc(Nc3ccc4c(c3F)CN(C3CN(Cc5ccccc5)C3)S4(=O)=O)n[nH]2)C1` (relative stereo) [Example 92, cis-3-(3-((2-(1-benzylazetidin-3-yl)-4-fluoro-1,1-dioxido-2,3-dihydrobenzo[d]isothiazol-5-yl)amino)-1H-pyrazol-5-yl)cyclopentyl isopropylcarbamate], for which the pIC50 in experiment [1] is 7.44; in experiment [2], 5.81.
Turning to `CC(C)NC(=O)O[C@H]1CC[C@@H](c2cc(Nc3ccc4c(c3F)CN(C3CCN(C)C3=O)S4(=O)=O)n[nH]2)C1` (relative stereo) [Example 93, cis-3-(3-((4-fluoro-2-(1-methyl-2-oxopyrrolidin-3-yl)-1,1-dioxido-2,3-dihydrobenzo[d]isothiazol-5-yl)amino)-1H-pyrazol-5-yl)cyclopentyl isopropylcarbamate], the results for the negative logarithm of the IC50 (pIC50) in experiment [1] and in experiment [2] were 8.20 and 6.27, respectively.
As for `CC(C)NC(=O)O[C@H]1CC[C@@H](c2cc(Nc3ccc4c(c3F)CN(C3CN(C(c5ccccc5)c5ccccc5)C3)S4(=O)=O)n[nH]2)C1` (relative stereo) [Example 94, cis-3-(3-((2-(1-benzhydrylazetidin-3-yl)-4-fluoro-1,1-dioxido-2,3-dihydrobenzo[d]isothiazol-5-yl)amino)-1H-pyrazol-5-yl)cyclopentyl isopropylcarbamate], the pIC50 is 6.48 in experiment [1] and < 5.00 in experiment [2].
The corresponding values for `CC(C)NC(=O)O[C@H]1CC[C@@H](c2cc(Nc3ccc4c(c3F)CN(CC3CC3)S4(=O)=O)n[nH]2)C1` (relative stereo) [Example 95, cis-3-(3-((2-(cyclopropylmethyl)-4-fluoro-1,1-dioxido-2,3-dihydrobenzo[d]isothiazol-5-yl)amino)-1H-pyrazol-5-yl)cyclopentyl isopropylcarbamate] are 7.82 and 6.01.
As for `CC(C)NC(=O)O[C@H]1CC[C@@H](c2cc(Nc3ccc4c(c3F)CN(CC3CCC3)S4(=O)=O)n[nH]2)C1` (relative stereo) [Example 96, cis-3-(3-((2-(cyclobutylmethyl)-4-fluoro-1,1-dioxido-2,3-dihydrobenzo[d]isothiazol-5-yl)amino)-1H-pyrazol-5-yl)cyclopentyl isopropylcarbamate], the pIC50 in experiment [1] is 7.44; in experiment [2], 5.70.
Take `CC(C)NC(=O)O[C@H]1CC[C@@H](c2cc(Nc3ccc4c(c3F)CN(CC3COC3)S4(=O)=O)n[nH]2)C1` (relative stereo) [Example 97, cis-3-(3-((4-fluoro-2-(oxetan-3-ylmethyl)-1,1-dioxido-2,3-dihydrobenzo[d]isothiazol-5-yl)amino)-1H-pyrazol-5-yl)cyclopentyl isopropylcarbamate]: the pIC50 in experiment [1] was 8.28; in experiment [2], 6.35.
Regarding `CC(C)NC(=O)O[C@H]1CC[C@@H](c2cc(Nc3ccc4c(c3F)CN(C[C@@H](N)C(C)(C)C)S4(=O)=O)n[nH]2)C1` (relative stereo) [Example 98, cis-3-(3-((2-((S)-2-amino-3,3-dimethylbutyl)-4-fluoro-1,1-dioxido-2,3-dihydrobenzo[d]isothiazol-5-yl)amino)-1H-pyrazol-5-yl)cyclopentyl isopropylcarbamate], the results for the pIC50 in experiment [1] and in experiment [2] were 7.70 and 5.72, respectively.
With `CC(C)NC(=O)O[C@H]1CC[C@@H](c2cc(Nc3ccc4c(c3F)CN(C[C@H](N)C(C)(C)C)S4(=O)=O)n[nH]2)C1` (relative stereo) [Example 99, cis-3-(3-((2-((R)-2-amino-3,3-dimethylbutyl)-4-fluoro-1,1-dioxido-2,3-dihydrobenzo[d]isothiazol-5-yl)amino)-1H-pyrazol-5-yl)cyclopentyl isopropylcarbamate], the pIC50 in experiment [1] was 7.92; in experiment [2], 6.28.
As to `CC(C)NC(=O)O[C@H]1CC[C@@H](c2cc(Nc3ccc4c(c3F)CN(C3CCN(C)C(=O)C3)S4(=O)=O)n[nH]2)C1` (relative stereo) [Example 100, cis-3-(3-((4-fluoro-2-(1-methyl-2-oxopiperidin-4-yl)-1,1-dioxido-2,3-dihydrobenzo[d]isothiazol-5-yl)amino)-1H-pyrazol-5-yl)cyclopentyl isopropylcarbamate], the pIC50 in experiment [1] was 8.28; in experiment [2] it was 6.63.
For the compound `CC(C)CN1Cc2c(ccc(Nc3cc([C@@H]4CC[C@H](OC(=O)NC(C)C)C4)[nH]n3)c2F)S1(=O)=O` (relative stereo) [Example 101, cis-3-(3-((4-fluoro-2-isobutyl-1,1-dioxido-2,3-dihydrobenzo[d]isothiazol-5-yl)amino)-1H-pyrazol-5-yl)cyclopentyl isopropylcarbamate], the pIC50 in experiment [1] was 8.00; in experiment [2], 5.99.
With `CC(C)NC(=O)O[C@H]1CC[C@@H](c2cc(Nc3ccc4c(c3F)CN(C(C)C3COC3)S4(=O)=O)n[nH]2)C1` (relative stereo) [Example 104, cis-3-(3-((4-fluoro-2-(1-(oxetan-3-yl)ethyl)-1,1-dioxido-2,3-dihydrobenzo[d]isothiazol-5-yl)amino)-1H-pyrazol-5-yl)cyclopentyl isopropylcarbamate], the results for the pIC50 in experiment [1] and in experiment [2] were 8.24 and 6.61, respectively.
On to `CC(C)NC(=O)O[C@H]1CC[C@@H](c2cc(Nc3ccc4c(c3F)CN(CC3CNC3)S4(=O)=O)n[nH]2)C1` (relative stereo) [Example 105, cis-3-(3-((2-(azetidin-3-ylmethyl)-4-fluoro-1,1-dioxido-2,3-dihydrobenzo[d]isothiazol-5-yl)amino)-1H-pyrazol-5-yl)cyclopentyl isopropylcarbamate], for which the pIC50 is 8.08 in experiment [1] and 6.16 in experiment [2].
